For this data set, the system named is rodent lifetime carcinogenesis bioassay, tumor incidence TD50. The data set can be described thus: chronic cancer bioassays in animals – CPDB, compiled studies (AID 1745844).

Molecules are shown by their SMILES. Where “and” joins values, the source holds several entries; their conditions need not be identical. Equal values may be shown once. Calls of active or inactive are those of the source. The rule behind the calls is not given here.

As to `Cc1ccc(N)cc1N`, the TD50 – broadly, the dose at which the toxic effect under study appears in half of the subjects – is 10.6 mg/kg/day (mouse, strain B6C3F1, females, in feed, site: all sites, lesion: leukemia + lymphoma, dosed 101 weeks, study length 101 weeks); 8.64 mg/kg/day (mouse, strain B6C3F1, females, in feed, site: any site (literature study), lesion: several types, types named in the paper, dosed 101 weeks, study length 101 weeks); 26.7 mg/kg/day (mouse, strain B6C3F1, females, in feed, site: liver, lesion: hepatocellular adenoma + hepatocellular carcinoma + neoplastic nodule, dosed 101 weeks, study length 101 weeks); 26.7 mg/kg/day (mouse, strain B6C3F1, females, in feed, site: liver, lesion: hepatocellular carcinoma, dosed 101 weeks, study length 101 weeks); 105 mg/kg/day (mouse, strain B6C3F1, males, in feed, site: any site (literature study), lesion: several types, types named in the paper, dosed 101 weeks, study length 101 weeks); 35.8 mg/kg/day (mouse, strain B6C3F1, males, in feed, site: lung, lesion: alveolar/bronchiolar adenoma + alveolar/bronchiolar carcinoma, dosed 101 weeks, study length 101 weeks). Moreover, the TD50 is 35.8 mg/kg/day (inactive) (mouse, strain B6C3F1, males, in feed, site: lung, lesion: alveolar/bronchiolar carcinoma, dosed 101 weeks, study length 101 weeks); 100 mg/kg/day (mouse, strain CD-1 HaM/ICR, females, in feed, site: any site (literature study), lesion: several types, types named in the paper, dosed 77 weeks, study length 90 weeks); 206 mg/kg/day (mouse, strain CD-1 HaM/ICR, females, in feed, site: liver, lesion: hepatoma, dosed 77 weeks, study length 90 weeks); 180 mg/kg/day (mouse, strain CD-1 HaM/ICR, females, in feed, site: liver, lesion: several types, types named in the paper, dosed 77 weeks, study length 90 weeks); 72 mg/kg/day (inactive) (mouse, strain CD-1 HaM/ICR, females, in feed, site: lung, lesion: several types, types named in the paper, dosed 77 weeks, study length 90 weeks); 317 mg/kg/day (mouse, strain CD-1 HaM/ICR, males, in feed, site: all sites, lesion: all vascular tumors, dosed 77 weeks, study length 90 weeks). Moreover, the TD50 is 201 mg/kg/day (mouse, strain CD-1 HaM/ICR, males, in feed, site: liver, lesion: hepatoma, dosed 77 weeks, study length 90 weeks); 191 mg/kg/day (mouse, strain CD-1 HaM/ICR, males, in feed, site: liver, lesion: several types, types named in the paper, dosed 77 weeks, study length 90 weeks); 2.98 mg/kg/day (rat, strain Charles River CD (Sprague-Dawley), males, in feed, site: any site (literature study), lesion: several types, types named in the paper, dosed 64 weeks, study length 73 weeks); 22.2 mg/kg/day (rat, strain Charles River CD (Sprague-Dawley), males, in feed, site: liver, lesion: hepatoma, dosed 64 weeks, study length 73 weeks); 26.2 mg/kg/day (rat, strain Charles River CD (Sprague-Dawley), males, in feed, site: liver, lesion: several types, types named in the paper, dosed 64 weeks, study length 73 weeks); 5.42 mg/kg/day and 4.42 mg/kg/day (rat, strain Charles River CD (Sprague-Dawley), males, in feed, site: subcutaneous tissue, lesion: fibroma, dosed 64 weeks, study length 73 weeks). For the same molecule, the TD50 by setting is: (rat, strain Fischer 344, females, in feed, site: any site (literature study), lesion: several types, types named in the paper, dosed 93 weeks, study length 103 weeks) 1.46 mg/kg/day; (rat, strain Fischer 344, females, in feed, site: liver + mammary gland, lesion: hepatocellular carcinoma + neoplastic nodule + adenoma + carcinoma, dosed 93 weeks, study length 103 weeks) 1.43 mg/kg/day; (rat, strain Fischer 344, females, in feed, site: liver, lesion: hepatocellular adenoma + hepatocellular carcinoma + neoplastic nodule, dosed 93 weeks, study length 103 weeks) 58 mg/kg/day; (rat, strain Fischer 344, females, in feed, site: liver, lesion: hepatocellular carcinoma + neoplastic nodule, dosed 93 weeks, study length 103 weeks) 58 mg/kg/day; (rat, strain Fischer 344, females, in feed, site: mammary gland, lesion: adenoma + carcinoma, dosed 93 weeks, study length 103 weeks) 5.54 mg/kg/day; (rat, strain Fischer 344, females, in feed, site: mammary gland, lesion: adenoma, dosed 93 weeks, study length 103 weeks) 1.46 mg/kg/day. Further, the TD50 runs as follows: (rat, strain Fischer 344, females, in feed, site: mammary gland, lesion: carcinoma, dosed 93 weeks, study length 103 weeks) 8.98 mg/kg/day; (rat, strain Fischer 344, females, in feed, site: subcutaneous tissue, lesion: fibroma, dosed 93 weeks, study length 103 weeks) 16.4 mg/kg/day; (rat, strain Fischer 344, males, in feed, site: all sites, lesion: mesothelioma, dosed 91 weeks, study length 103 weeks) 6.81 mg/kg/day; (rat, strain Fischer 344, males, in feed, site: any site (literature study), lesion: several types, types named in the paper, dosed 91 weeks, study length 103 weeks) 0.991 mg/kg/day; (rat, strain Fischer 344, males, in feed, site: liver, lesion: hepatocellular adenoma + hepatocellular carcinoma + neoplastic nodule, dosed 91 weeks, study length 103 weeks) 8.11 mg/kg/day; (rat, strain Fischer 344, males, in feed, site: liver, lesion: hepatocellular carcinoma + neoplastic nodule, dosed 91 weeks, study length 103 weeks) 8.11 mg/kg/day. Besides, the TD50 is 2.52 mg/kg/day (rat, strain Fischer 344, males, in feed, site: subcutaneous tissue, lesion: fibroma, dosed 91 weeks, study length 103 weeks) and 13.2 mg/kg/day (rat, strain Fischer 344, males, in feed, site: subcutaneous tissue, lesion: lipoma, dosed 91 weeks, study length 103 weeks). Also, where the note is “mouse, strain CD-1 HaM/ICR, males, in feed, site: lung, lesion: several types, types named in the paper, dosed 77 weeks, study length 90 weeks”, the carcinogen call was “negative (inactive)”.

Regarding `ClCc1cccnc1`, the TD50 (mouse, strain B6C3F1, females, by gavage, site: any site (literature study), lesion: several types, types named in the paper, dosed 91 weeks, study length 104 weeks) is 141 mg/kg/day; the TD50 (mouse, strain B6C3F1, females, by gavage, site: liver, lesion: hepatocellular adenoma + hepatocellular carcinoma + neoplastic nodule, dosed 91 weeks, study length 104 weeks) came out at 16300 mg/kg/day; the TD50 (mouse, strain B6C3F1, females, by gavage, site: lung, lesion: alveolar/bronchiolar adenoma + alveolar/bronchiolar carcinoma, dosed 91 weeks, study length 104 weeks) turned out to be 1970 mg/kg/day; the TD50 (mouse, strain B6C3F1, females, by gavage, site: stomach, lesion: squamous-cell carcinoma + squamous-cell papilloma, dosed 91 weeks, study length 104 weeks) is 394 mg/kg/day; the TD50 (mouse, strain B6C3F1, males, by gavage, site: any site (literature study), lesion: several types, types named in the paper, dosed 91 weeks, study length 104 weeks) was 64.9 mg/kg/day; the TD50 (mouse, strain B6C3F1, males, by gavage, site: liver, lesion: hepatocellular adenoma + hepatocellular carcinoma + neoplastic nodule, dosed 91 weeks, study length 104 weeks) came out at 324 mg/kg/day. The TD50 by setting is: (mouse, strain B6C3F1, males, by gavage, site: lung, lesion: alveolar/bronchiolar adenoma + alveolar/bronchiolar carcinoma, dosed 91 weeks, study length 104 weeks) 624 mg/kg/day; (mouse, strain B6C3F1, males, by gavage, site: stomach, lesion: squamous-cell carcinoma + squamous-cell papilloma, dosed 91 weeks, study length 104 weeks) 161 mg/kg/day; (rat, strain Fischer 344, females, by gavage, site: any site (literature study), lesion: several types, types named in the paper, dosed 93 weeks, study length 104 weeks) 160 mg/kg/day (inactive); (rat, strain Fischer 344, males, by gavage, site: stomach, lesion: squamous-cell carcinoma + squamous-cell papilloma, dosed 93 weeks, study length 104 weeks) 433 mg/kg/day.

In the case of `Nc1ccc2c(c1)oc1ccccc12`, the TD50 (rat, strain Wistar, males, in feed, site: any site (literature study), lesion: benign tumor, dosed 89 weeks, study length 89 weeks) was determined as 1.57 mg/kg/day; the TD50 (rat, strain Wistar, males, in feed, site: any site (literature study), lesion: malignant tumor, dosed 89 weeks, study length 89 weeks) was 2.48 mg/kg/day; the TD50 (rat, strain Wistar, males, in feed, site: liver, lesion: hepatoma, dosed 89 weeks, study length 89 weeks) stood at 9.44 mg/kg/day.

With `CO[C@@H]1[C@@H](O[C@@H]2O[C@H](C)[C@@H](O[C@H]3C[C@@](C)(O)[C@@H](OC(=O)CC(C)C)[C@H](C)O3)[C@H](N(C)C)[C@H]2O)[C@@H](CC=O)C[C@@H](C)[C@@H](O)/C=C/C=C/C[C@@H](C)OC(=O)C[C@H]1OC(C)=O`, the carcinogen call is “negative (inactive)” (rat, strain F344/DuCrj, females, in feed, site: liver, lesion: hepatocellular adenoma, dosed 104 weeks, study length 106 weeks); “negative (inactive)” (rat, strain F344/DuCrj, females, in feed, site: liver, lesion: one or several types, types not named, dosed 52 weeks, study length 52 weeks); “negative (inactive)” (rat, strain F344/DuCrj, males, in feed, site: liver, lesion: hepatocellular adenoma, dosed 104 weeks, study length 106 weeks); “negative (inactive)” (rat, strain F344/DuCrj, males, in feed, site: liver, lesion: one or several types, types not named, dosed 52 weeks, study length 52 weeks). Moreover, the TD50 (rat, strain F344/DuCrj, males, in feed, site: liver, lesion: hepatocellular carcinoma, dosed 104 weeks, study length 106 weeks) was 51300 mg/kg/day (inactive).

Take `Cn1cnc2nc(N)[nH]c(=O)c21`: under “rat, strain BR 46, both sexes, i.v., site: any site (literature study), lesion: malignant tumor, dosed 106 weeks, study length 126 weeks”, the TD50 is 8.24 mg/kg/day (inactive).

For the molecule `c1ccc2[nH]ccc2c1`, the carcinogen call (mouse, strain Swiss albino, females, in feed, site: urinary bladder, lesion: carcinoma, dosed 70 weeks, study length 70 weeks) is “negative (inactive)”.

As to `C=CCc1ccc(O)c(OC)c1`, the TD50 is, setting by setting: (mouse, strain B6C3F1, females, in feed, site: liver, lesion: hepatocellular adenoma + hepatocellular carcinoma + neoplastic nodule, dosed 103 weeks, study length 104 weeks) 2910 mg/kg/day; (mouse, strain B6C3F1, females, in feed, site: liver, lesion: hepatocellular adenoma + hepatocellular carcinoma, dosed 103 weeks, study length 104 weeks) 2910 mg/kg/day; (mouse, strain B6C3F1, females, in feed, site: lung, lesion: alveolar/bronchiolar adenoma + alveolar/bronchiolar carcinoma, dosed 103 weeks, study length 104 weeks) 25300 mg/kg/day; (mouse, strain B6C3F1, males, in feed, site: any site (literature study), lesion: several types, types named in the paper, dosed 103 weeks, study length 104 weeks) 1550 mg/kg/day; (mouse, strain B6C3F1, males, in feed, site: liver, lesion: hepatocellular adenoma + hepatocellular carcinoma + neoplastic nodule, dosed 103 weeks, study length 104 weeks) 451 mg/kg/day; (mouse, strain B6C3F1, males, in feed, site: liver, lesion: hepatocellular adenoma + hepatocellular carcinoma, dosed 103 weeks, study length 104 weeks) 451 mg/kg/day. Also, the TD50 by setting is: (mouse, strain B6C3F1, males, in feed, site: liver, lesion: hepatocellular adenoma, dosed 103 weeks, study length 104 weeks) 781 mg/kg/day; (mouse, strain B6C3F1, males, in feed, site: liver, lesion: hepatocellular carcinoma, dosed 103 weeks, study length 104 weeks) 710 mg/kg/day; (mouse, strain B6C3F1, males, in feed, site: thyroid gland, lesion: follicular-cell adenoma, dosed 103 weeks, study length 104 weeks) 8520 mg/kg/day; (rat, strain Fischer 344, males, in feed, site: any site (literature study), lesion: several types, types named in the paper, dosed 103 weeks, study length 104 weeks) 293 mg/kg/day; (rat, strain Fischer 344, males, in feed, site: lung, lesion: alveolar/bronchiolar adenoma + alveolar/bronchiolar carcinoma, dosed 103 weeks, study length 104 weeks) 424 mg/kg/day (inactive). Moreover, the carcinogen call is “negative (inactive)” (mouse, strain Charles River CD1, females, in feed, site: liver, lesion: one or several types, types not named, dosed 50 weeks, study length 78 weeks); “negative (inactive)” (mouse, strain Charles River CD1, females, in feed, site: lung, lesion: adenoma, dosed 50 weeks, study length 78 weeks); “negative (inactive)” (rat, strain Fischer 344, females, in feed, site: any site (literature study), lesion: several types, types named in the paper, dosed 103 weeks, study length 104 weeks).

Take `CCCCCCCCCCCCCCCC(=O)CC(=O)CCCCCCCCCCCCCCC`: the carcinogen call (rat, strain F344/DuCrj, females, in feed, site: colon, lesion: one or several types, types not named, dosed 54 weeks, study length 54 weeks) is “negative (inactive)” and the carcinogen call (rat, strain F344/DuCrj, females, in feed, site: mammary gland, lesion: one or several types, types not named, dosed 54 weeks, study length 54 weeks) was “negative (inactive)”.

For the origin of these results see PubChem BioAssay AID1745844 (Carcinogenic Potency Database (CPDB), 2022).
